Measured values taken from PubChem BioAssay (NCI).
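Cells were grown in 96-well plates and exposed to each compound for 48 hours at five concentrations; endpoints were interpolated linearly between bracketing concentrations, or set to the highest concentration if not reached. GI50: concentration for 50% inhibition of growth. At the TGI there is no net growth.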

How the values were obtained:
Test in all cases: DTP human tumour cell line panel, 48 h
[1] = test system: 786-0 renal
[2] = test system: A549 NSCLC
[3] = test system: SK-MEL-2 melanoma
[4] = test system: KM12 colon
[5] = test system: M14 melanoma
[6] = test system: MOLT-4 leukemia
[7] = test system: OVCAR-3 ovarian
[8] = test system: COLO 205 colon

COc1cc2nc(-c3cc(F)ccc3O)nc(N[C@@H]3CNC[C@H]3C(C)(C)O)c2cc1OC
GI50 [1]: 1.44 µM
TGI [1]: 2.92 µM
GI50 [2]: 1.74 µM
TGI [2]: 3.51 µM
GI50 [3]: 1.59 µM
TGI [3]: 3.12 µM
GI50 [4]: 1.73 µM
TGI [4]: 3.18 µM
GI50 [5]: 1.87 µM
TGI [5]: 3.47 µM
GI50 [6]: 2.09 µM
TGI [6]: 4.7 µM
GI50 [7]: 1.9 µM
TGI [7]: 3.62 µM
GI50 [8]: 1.63 µM
TGI [8]: 3.16 µM

OCCNC1c2cc(Cl)ccc2-c2c(Cl)cc(Cl)cc21 (centres undefined)
TGI [1]: > 100 µM
TGI [2]: > 100 µM
TGI [3]: 45.4 µM
TGI [4]: > 100 µM
TGI [5]: > 100 µM
TGI [6]: 47.6 µM
TGI [7]: 80 µM
TGI [8]: > 100 µM

CCN(CC)CCCCCCNc1cc(OC)cc2cccnc12
GI50 [1]: 2.11 µM
TGI [1]: 4.32 µM
GI50 [2]: 4.35 µM
TGI [2]: 15.4 µM
GI50 [3]: 17.6 µM
TGI [3]: 32.6 µM
GI50 [4]: 3.15 µM
TGI [4]: 10.5 µM
GI50 [5]: 1.93 µM
TGI [5]: 3.74 µM
GI50 [6]: 1.84 µM
TGI [6]: 3.86 µM
GI50 [7]: 1.74 µM
TGI [7]: 3.4 µM
GI50 [8]: 1.94 µM
TGI [8]: 3.85 µM

COc1cc2c(cc1OCCCCN1CCN(C(=S)SCCC(C#N)(c3ccccc3)c3ccccc3)CC1)N=C[C@@H]1CCCN1C2=O
GI50 [1]: 1.28 µM
TGI [1]: 2.8 µM
GI50 [3]: 1.04 µM
TGI [3]: 2.35 µM
GI50 [4]: 1.39 µM
TGI [4]: 3.78 µM
GI50 [7]: 1.2 µM
TGI [7]: 2.93 µM
GI50 [8]: 1.4 µM
TGI [8]: 5.66 µM

Cc1ccc(-c2nc([P+](c3ccccc3)(c3ccccc3)c3ccccc3)c(S(=O)(=O)c3ccc(C)cc3)o2)cc1
GI50 [1]: 1.46 µM
TGI [1]: 2.85 µM
GI50 [2]: 2 µM
TGI [2]: 5.14 µM
GI50 [3]: 2.17 µM
TGI [3]: 4.41 µM
GI50 [4]: 1.75 µM
TGI [4]: 3.83 µM
GI50 [5]: 1.51 µM
TGI [5]: 3.27 µM
GI50 [6]: 1.06 µM
TGI [6]: 4.63 µM
GI50 [7]: 0.755 µM
TGI [7]: 2.07 µM
GI50 [8]: 1.71 µM
TGI [8]: 4.28 µM

Nc1nc(Nc2ccccc2SSc2ccccc2Nc2nc(N)nc(C(Cl)(Cl)Cl)n2)nc(C(Cl)(Cl)Cl)n1
GI50 [1]: 7 µM
TGI [1]: 19.9 µM
GI50 [2]: 2.95 µM
TGI [2]: 10.8 µM
GI50 [3]: 13.2 µM
TGI [3]: 33.9 µM
GI50 [4]: 4.05 µM
TGI [4]: 28.9 µM
GI50 [5]: 9.13 µM
TGI [5]: 22.9 µM
GI50 [6]: 3.22 µM
TGI [6]: 18.1 µM
GI50 [7]: 10.4 µM
TGI [7]: 33.8 µM
GI50 [8]: 17.6 µM
TGI [8]: 34.9 µM

O=C(O)c1cccc(C(=O)O)c1S(=O)Cc1ccccc1 (centres undefined)
TGI [1]: > 100 µM
TGI [2]: > 100 µM
TGI [3]: > 100 µM
TGI [4]: > 100 µM
TGI [5]: > 100 µM
TGI [7]: > 100 µM
TGI [8]: > 100 µM

COc1ncnc(NS(=O)(=O)c2ccc(N=C3C(=O)N(CN4CCN(c5c(F)cc6c(=O)c(C(=O)O)cn(C7CC7)c6c5OC)CC4C)c4ccc(Br)cc43)cc2)c1OC (centres undefined)
GI50 [1]: 38.8 µM
TGI [1]: > 50 µM
GI50 [2]: 4.78 µM
TGI [2]: > 50 µM
GI50 [3]: 20.5 µM
TGI [3]: > 50 µM
GI50 [4]: 4.02 µM
TGI [4]: 15.9 µM
GI50 [5]: 15.3 µM
TGI [5]: > 50 µM
GI50 [6]: 18.3 µM
TGI [6]: > 50 µM
GI50 [7]: 7.52 µM
TGI [7]: 40.7 µM
GI50 [8]: 10.8 µM
TGI [8]: 39.9 µM

COC(=O)c1cc2c(cc1Cl)SC1=NN(C)C(N(C)C)N1S2(=O)=O (centres undefined)
GI50 [1]: > 100 µM
TGI [1]: > 100 µM
GI50 [2]: > 100 µM
TGI [2]: > 100 µM
GI50 [3]: > 100 µM
TGI [3]: > 100 µM
GI50 [4]: > 100 µM
TGI [4]: > 100 µM
GI50 [5]: > 100 µM
TGI [5]: > 100 µM
GI50 [6]: 62.8 µM
TGI [6]: > 100 µM
GI50 [7]: > 100 µM
TGI [7]: > 100 µM
GI50 [8]: > 100 µM
TGI [8]: > 100 µM

C/C(=C\c1cnc(C)s1)[C@@H]1C[C@@H]2O[C@@H]2CCC[C@H](C)[C@H](O)[C@@H](C)C(=O)C(C)(C)[C@@H](O)CC(=O)O1
GI50 [1]: < 0.01 µM
TGI [1]: > 100 µM
GI50 [2]: < 0.01 µM
TGI [2]: > 100 µM
GI50 [3]: < 0.0146 µM
TGI [3]: > 100 µM
GI50 [4]: < 0.01 µM
TGI [4]: > 100 µM
GI50 [6]: < 0.01 µM
TGI [6]: > 100 µM
GI50 [7]: < 0.01 µM
TGI [7]: > 100 µM
GI50 [8]: < 0.01 µM
TGI [8]: 0.0304 µM

CC1=C(CC(=O)c2cccc([N+](=O)[O-])c2)C(=O)c2ccccc2C1=O
GI50 [1]: 14.8 µM
TGI [1]: 35.4 µM
GI50 [2]: 15.6 µM
TGI [2]: 36.2 µM
GI50 [4]: 17.3 µM
TGI [4]: 49.5 µM
GI50 [5]: 6.66 µM
TGI [5]: 22.3 µM
GI50 [6]: 3.27 µM
TGI [6]: 14.1 µM
GI50 [7]: 2.82 µM
TGI [7]: 9.34 µM
GI50 [8]: 19.7 µM
TGI [8]: 37.6 µM

CN(CCNCc1ccccn1)CCNCc1ccccn1
GI50 [1]: 1.8 µM
TGI [1]: 3.57 µM
GI50 [2]: 2.95 µM
TGI [2]: 8.07 µM
GI50 [4]: 3.11 µM
TGI [4]: 10.1 µM
GI50 [5]: 2.26 µM
TGI [5]: 5.93 µM
GI50 [6]: 3.61 µM
TGI [6]: > 100 µM
GI50 [7]: 2.09 µM
TGI [7]: 4.27 µM
GI50 [8]: 2.53 µM
TGI [8]: 6.02 µM

COc1ccc(NC(=O)C2CCC(CNS(=O)(=O)c3ccccc3)CC2)cc1OC (centres undefined)
GI50 [1]: > 100 µM
TGI [1]: > 100 µM
GI50 [2]: > 100 µM
TGI [2]: > 100 µM
GI50 [3]: > 100 µM
TGI [3]: > 100 µM
GI50 [4]: > 100 µM
TGI [4]: > 100 µM
GI50 [5]: > 100 µM
TGI [5]: > 100 µM
GI50 [6]: > 100 µM
TGI [6]: > 100 µM
GI50 [7]: > 100 µM
TGI [7]: > 100 µM

O=C(Nc1cccc(-n2cc(-c3ccncc3)c(-c3cc(O)cc(Cl)c3)n2)c1)c1cc(C(F)(F)F)cc(C(F)(F)F)c1
GI50 [1]: 3.12 µM
TGI [1]: 21.1 µM
GI50 [2]: 2.62 µM
TGI [2]: > 100 µM
GI50 [3]: 3.28 µM
TGI [3]: 9.51 µM
GI50 [5]: 3.01 µM
TGI [5]: > 100 µM
GI50 [6]: 2.38 µM
TGI [6]: > 100 µM
GI50 [7]: 3.28 µM
TGI [7]: 25.7 µM
GI50 [8]: 2.32 µM
TGI [8]: 5.74 µM

COc1cc2c(cc1OC)-c1ncc3c(OC)c(OC)c(OC)cc3c1C2
GI50 [1]: 36.7 µM
TGI [1]: > 100 µM
GI50 [2]: 19.1 µM
TGI [2]: 40.7 µM
GI50 [3]: 0.0541 µM
TGI [3]: 23.5 µM
GI50 [4]: 33.8 µM
TGI [4]: > 100 µM
GI50 [5]: > 100 µM
TGI [5]: > 100 µM
GI50 [7]: 0.529 µM
TGI [7]: 9.91 µM
GI50 [8]: > 100 µM
TGI [8]: > 100 µM

CCCCCO/N=C\c1c2c(O)c3c(O)c(C)c4c(c3c1O)C(=O)C(C)(O/C=C\C(OC)C(C)C(OC(C)=O)C(C)C(O)C(C)C(O)C(C)/C=C\C=C(\C)C(=O)N2)O4 (centres undefined)
GI50 [1]: 1.73 µM
TGI [1]: 3.25 µM
GI50 [2]: 1.8 µM
TGI [2]: 3.39 µM
GI50 [4]: 1.64 µM
TGI [4]: 3 µM
GI50 [5]: 1.62 µM
TGI [5]: 3.01 µM
GI50 [6]: 2.8 µM
TGI [6]: 9.1 µM
GI50 [7]: 1.5 µM
TGI [7]: 2.82 µM
GI50 [8]: 1.52 µM
TGI [8]: 2.85 µM
